Entries after “also recorded” stand apart in the source; their conditions may differ. Where two headings read alike, the source gives them in different places.
Key:
[1] = test system: habitual smoker; experiment: Low dose intranasal noribogaine on smoking craving; format: in vivo, human; settings: nanogram amount absorbed intranasally, during a period of several hours
From the text: A habitual smoker intranasally absorbed a nanogram amount of noribogaine hydrochloride. […] The patient was unaware during that period of any nicotine or smoking cravings.

[2] = test system: nicotine dependent rats; experiment: Nicotine self-administration test; format: in vivo, Sprague-Dawley rats; settings: for inactive lever press during nicotine self-administration: all treatments, repeated measure ANOVA, P>0.05
[3] = test system: zebrafish during nicotine withdrawal; format: in vivo
Method: A total of 60 adult wild type short-fin zebrafish (˜50:50 male:female ratio) were used in this study. Fish were housed in groups of 20-30 fish per 40-L tank. Tanks were filled with filtered water and maintained at 25° C. Illumination (1000-1100 lx) was provided by ceiling-mounted fluorescent lights on a 12-h cycle (on: 6.00 h, off: 18.00 h) according to the standards of zebrafish care. All fish used in this study were experimentally naïve and fed Tetramin Tropical Flakes (Tetra USA, Blacksburg, Va.) twice a day. Following behavioral testing, the animals were euthanized in 500 mg/L Tricaine (Sigma-Aldrich, St. Louis, Mo.) buffered to pH=7.0. Animal experimentation in this study fully adhered to national and institutional guidelines and regulations.
A 1 mg/L dose of noribogaine (DMX1) was chosen based on pilot experiments and literature reports on effective doses other similar compounds. […] A standard 20-min pre-treatment time was chosen based on experience with a wide range of other neuroactive compounds and the results of pilot studies. This exposure time was also sufficient for provoking physiological (e.g., cortisol and c-fos) responses of zebrafish to multiple drugs. Drug exposure in this study was performed by submerging individual zebrafish in a 1-L plastic beaker for 20 min prior to the testing. The solution was regularly changed after each exposure, to ensure that each fish is exposed to a consistent concentration of noribogaine. Control fish were exposed to noribogaine-free water for the same treatment time, as described above.
Behavioral testing was performed between 11:00 and 15:00 h using tanks with water adjusted to the holding room temperature (25° C.). The study used the novel tank test (NTT) protocol. NTT represents one of the most commonly used neurophenotyping tests for adult zebrafish. To avoid the test battery or handling effects, each assay was performed once, on a separate individual naïve fish each time. Prior to testing, fish were pre-exposed individually in a 1-L plastic beaker for 20 min to either drug-treated or drug-free water. During testing, zebrafish behavior was recorded by two trained observers blind to the treatments, who manually scored different behavioral endpoints (inter- and intra-rater reliability in all experiments>0.85) with subsequent automated analysis of generated traces by Ethovision XT8.5 software (Noldus IT, Wageningen, Netherlands). The NTT, used to assess zebrafish anxiety and locomotion, was a 1.5-L trapezoidal tank (15 cm height×28 cm top×23 cm bottom×7 cm width; Aquatic Habitats, Apopka, Fla.) maximally filled with water and divided into two equal virtual horizontal portions by a line marking the outside walls. Fish were individually pre-exposed to water (water control), chronic nicotine (1 mg/L), repeated withdrawal from chronic nicotine (WD), and repeated withdrawal plus noribogaine (1 mg/L) for 20 min and tested in the standard 5-min NTT.
Zebrafish behavior was recorded by trained observers, scoring the latency to reach the top half of the tank(s), time spent in top(s), number of transitions to top, as well as the number and duration(s) of freezing bouts. Freezing was defined as a total absence of movement, except for the gills and eyes, for >2 s. Trials were also recorded to a computer using a USB webcam (2.0-megapixel, Gigaware, UK) and subsequently analyzed by Ethovision XT8.5, assessing distance traveled (m), velocity (m/s), and meandering endpoints. During manual observation, videos were recorded in MPEG1 format with the maximum sample rate 30 fps for each trial by auto-focusing 2.0 MP USB webcams, placed 25 cm in front of the tanks, and attached to laptop computers. Recorded videos were analyzed with Ethovision XT8.5 software. All environments were calibrated for each arena and the calibration axes were placed to designate the origin (0,0) at the center of each tank. […]

[4] = test system: opioid-dependent participants; experiment: Efficacy in opioid-dependent participants: time to resumption of OST and COWS/OOWS/SOWS withdrawal scores; format: in vivo, human
Method: The efficacy of noribogaine in humans was evaluated in opioid-dependent participants in a randomized, placebo-controlled, double-blind trial. […] See U.S. application Ser. No. 14/214,157, filed Mar. 14, 2014 and Ser. No. 14/346,655, filed Mar. 21, 2014, which are incorporated herein by reference in their entireties.
Three cohorts of nine (9) subjects (6 administered noribogaine and 3 administered placebo in each cohort) were evaluated for tolerability, pharmacokinetics, and efficacy. Cohort 1 received a single dose of 60 mg noribogaine or placebo. Cohort 2 received a single dose of 120 mg noribogaine or placebo. Cohort 3 received a single dose of 180 mg noribogaine or placebo. […] Headaches were frequent in the placebo and 60 mg noribogaine treatment groups, but were attenuated in the 120 mg and 180 mg dose groups.
Patients were evaluated based on the Clinical Opiate Withdrawal Scale (COWS), Subjective Opiate Withdrawal Scale (SOWS), and Objective Opiate Withdrawal Scale (OOWS) scoring systems over the period of time between administration of noribogaine (or placebo) until resumption of OST. These scales are outlined in Guidelines for the Psychosocially Assisted Pharmacological Treatment of Opioid Dependence, World Health Organization, Geneva (2009), Annex 10, which is incorporated herein by reference in its entirety. The scales measure the intensity of withdrawal symptoms, based on clinical, subjective, and objective indicia.

[5] = Treatment emergent adverse events in opioid-dependent participants
[6] = Pharmacokinetics in opioid-dependent patients (Phase IB study); settings: 60, 120, 180 mg cohorts
[7] = Ascending single oral dose pharmacokinetics of noribogaine in healthy volunteers (plasma, urine, LCMSMS); settings: for mean AUC/24 hr / mean AUC/24: fasting conditions, serum
[8] = Pupillometry (pupillary miosis) in healthy volunteers; format: in vivo, human
Method: Pupillary miosis was assessed by pupillometry.

[9] = QT interval evaluation in opioid-dependent participants; format: in vivo, human; settings: 60, 120, 180 mg, first 24 hours post administration; correlated with serum concentration
Method: Patients' QT intervals were evaluated at regular time points throughout the study.

[10] = Safety and tolerability of noribogaine in healthy humans
[11] = Cold pressor test in healthy volunteers; format: in vivo, human; settings: ANOVA after adjusting for baseline
Method: Analgesic effect was assessed based on duration of hand immersion in ice water and on visual analog scale (VAS) pain scores upon hand removal from the water bath.

[12] = nicotine withdrawal + 1 mg/L, 20 min immersion, 5-min NTT
[13] = nicotine withdrawal + 1 mg/L, NTT
[14] = nicotine withdrawal + 1 mg/L, vs control, chronic nicotine and nicotine withdrawal groups
[15] = noribogaine in plasma, across dose groups 3-60 mg

CC[C@@H]1C[C@H]2CC3c4[nH]c5ccc(O)cc5c4CCN(C2)C31.Cl [noribogaine hydrochloride]
craving to smoke [1]: any craving to smoke stopped

c1cnc2cc3c(cc2n1)[C@@H]1CNC[C@H]3C1 [varenicline, Varenicline, reference compound]
inactive lever press during nicotine self-administration [2]: no significant main effect of treatment

CC[C@H]1CC2C[C@H]3c4[nH]c5ccc(O)cc5c4CCN(C2)C13 [Noribogaine]
anxiolytic-like effects (manual NTT endpoints) ([3]; 1 mg/L): statistically significant anxiolytic-like effects
circling behavior ([3]; 1 mg/L, NTT, unaltered turn angle): did not evoke circling behavior
Anxiogenic-like and locomotor effects of repeated nicotine withdrawal ([3]; 1 mg/L, acute): fully reversed
motor activity (distance traveled and velocity measures) ([3]; 1 mg/L, computer-generated NTT endpoints): unaltered motor activity
efficacy in pilot experiment ([3]; 1 mg/L, dose did not promote locomotor effects): sub-maximal efficacy
latency to top [3, 12]: statistically significant decrease
transitions to top [3, 12]: statistically significant increase
transitions to upper half of tank per minute (habituation) [3, 12]: reached values equivalent to the control group at 5 minutes
Average velocity [3, 13]: corrected by noribogaine treatment
Freezing bouts' frequency and duration [3, 13]: reversed that effect in nicotine withdrawal fish and re-established levels to that of the control fish group
Total distance traveled (anxiety-like response of withdrawal group) [3, 13]: corrected by treatment with noribogaine
absolute change in direction (rotation angle) [3, 13]: no difference observed
absolute change in direction of movement per distance moved (FIG. 12, panel G), reduced in withdrawal group [3, 13]: corrected by treatment with noribogaine
freezing bouts frequency [3, 13]: re-established the high bouts due to nicotine withdrawal toward control levels
high-mobility number of events [3, 13]: increase in high-mobility number of events
increase of hi-mobility duration and frequency (factor) [3, 13]: ~2
mobility and immobility endpoints (durations, frequency) [3, 13]: reestablished mobility (mobile and immobile) durations and frequency in nicotine treated fish to control values
relative change in direction; absolute change in direction of movement per distance moved (FIG. 12, panels E and F) [3, 13]: no change was seen
mobility and immobility endpoints (durations, frequency) ([3]; nicotine withdrawal + 1 mg/L, NTT, listed as noribogaine): control-equivalent values for mobility and immobility endpoints
turning rotation rate ([3]; nicotine withdrawal + 1 mg/L, over chronic nicotine and nicotine withdrawal groups): slight increase in turning rotation rate
average entry duration [3, 14]: increased average entry duration
time spent in top [3, 14]: Statistically significant increases in the duration of time spent in the top(s) portion of the tank
withdrawal symptoms (COWS, OOWS, SOWS), first six hours following dosing ([4]; 120 mg): generally experienced fewer withdrawal symptoms than the other patients
withdrawal symptoms (COWS, OOWS, SOWS), noribogaine versus placebo ([4]; 60, 120, 180 mg, first six hours following dosing): Patients administered placebo generally experienced more withdrawal symptoms than patients who were administered noribogaine
average time to resumption of opioids (OST) ([4]; single 180 mg dose): still longer than untreated patients
Headaches ([5]; 60 mg treatment group): frequent
Headaches ([5]; 120 mg and 180 mg dose groups): attenuated
adverse effects observed ([5]; opioid-dependent participants, single 60, 120 or 180 mg): Few adverse effects
Dry Mouth ([5]; treatment emergent AE, 60 mg, N = 6): 0
dose dependence of maximum serum concentration (Cmax) [6]: increased in a dose-dependent manner
Tmax ([7]; healthy volunteers, single oral 30 mg noribogaine, fasted, plasma, mean (SD), n = 6, listed as noribogaine free base): 1.75 h
Mean half-life estimates [7, 15]: 28 to 50 h
time of peak concentrations after oral dosing [7, 15]: 2 to 3 h
mean AUC/24 hr ([7]; single dose of 3 mg noribogaine free base): 3.1 ng/mL
mean AUC/24 hr ([7]; single dose of 10 mg noribogaine free base): 10.6 ng/mL
mean AUC/24 ([7]; single dose of 30 mg noribogaine free base): 29.2 ng/mL
mean AUC/24 ([7]; single dose of 60 mg noribogaine free base): 61 ng/mL
dose dependence of Cmax and AUC ([7]; single oral 3-60 mg): increased linearly with dose
nicotine infusion ([2]; 12.5 mg/kg orally 2 hours prior to test, P<0.10 vs vehicle): A trend of depression of nicotine infusions
nicotine infusion ([2]; 25 mg/kg orally 2 hours prior to test, P<0.001 vs vehicle): significantly depressed nicotine infusion
nicotine infusion ([2]; 50 mg/kg orally 2 hours prior to test, P<0.001 vs vehicle): significantly depressed nicotine infusion
inactive lever press during nicotine self-administration [2]: no significant main effect of treatment
pupil diameter, each dose group compared with placebo ([8]; ANOVA after adjusting for baseline, 3-60 mg): no statistically significant differences
pupillary constriction ([8]; healthy volunteers, single oral 3-60 mg): no evidence of pupillary constriction
QT interval prolongation (ΔQTcl) [9]: dose-dependent increase in QT interval prolongation
number of adverse events reported ([10]; 3 mg dose group): five adverse events were reported by two subjects
number of adverse events reported ([10]; 10 mg dose group): one adverse event was reported by single subjects
number of adverse events reported ([10]; 30 mg dose group): one adverse event was reported by single subjects
intensity of adverse events ([10]; all dose groups, all resolved prior to study completion): mild-moderate intensity
Adverse events: Mild ([10]; healthy volunteers, 3 mg dose): Dizziness; also recorded: Epistaxis; also recorded: Headache; also recorded: Back pain
Adverse events: Moderate ([10]; healthy volunteers, 3 mg dose): Headache
Adverse events: Mild ([10]; healthy volunteers, 10 mg dose): Headache
Adverse events: Mild ([10]; healthy volunteers, 30 mg dose): Headache
QTcF values ([10]; healthy volunteers, 3-60 mg, at any time): ≤ 500 ms
increase in QTcF ([10]; one subject, 10 mg, single increase at 24 hours post-dosing): > 60 ms
VAS pain scores, each dose group compared with placebo [11]: no statistically significant differences
duration of hand immersion, each dose group compared with placebo [11]: no statistically significant differences

CC[C@H]1C[C@@H]2C[C@H]3c4[nH]c5ccc(OC6OC(C(=O)O)C(O)C(O)C6O)cc5c4CCN(C2)[C@@H]13 (some centres unmarked) [Noribogaine glucuronide, noribogaine glucuronide]
time by which detected in plasma of all subjects ([7]; 30 mg and 60 mg noribogaine dose groups): ≤ 0.75 h
proportion of Cmax and AUC relative to noribogaine ([7]; both dose groups (30 mg, 60 mg)): 3-4%
time of peak concentrations after noribogaine dosing ([7]; noribogaine glucuronide in plasma, 30 mg and 60 mg dose groups): 3 to 4 h

Source: US9561232B2, “Low dose noribogaine for treating nicotine addiction and preventing relapse of nicotine use” (priority 2014, dated 2017)
